What was measured:
[1] = test system: advanced pancreatic cancer; settings: cited from earlier work
[2] = test system: IBS patients; experiment: open-label study in forty-two IBS patients; type: in vivo, human
Procedure: Forty-two IBS patients participated in an open-label study. Participants received 0.5 mg PTI-901/day for 4 weeks and were evaluated during baseline, during treatment, and at 4-week follow-up. Patients recorded degree of abdominal pain, stool urgency, consistency, and frequency. Primary outcomes were number of pain-free days and overall symptom relief, evaluated by a global assessment score. Data were analyzed per protocol. Global assessment improved in 76% of 42 patients. During treatment, the mean weekly number of pain-free days increased from 0.5+/−1 to 1.25+/−2.14 (P=0.011).

| SMILES | Clinical benefit response, historical controls [1] [%] | adverse reactions ([2]; 0.5 mg/day for 4 weeks) | patients with improved global assessment ([2]; 0.5 mg/day for 4 weeks, 42 patients) [%] | mean weekly number of pain-free days during treatment ([2]; 0.5 mg/day, baseline 0.5+/−1, P=0.011) [days] |
| --- | --- | --- | --- | --- |
| Nc1ccn([C@@H]2O[C@H](CO)[C@@H](O)C2(F)F)c(=O)n1 [gemcitabine] | 23.8 |  |  |  |
| O=c1[nH]cc(F)c(=O)[nH]1 [5-fluorouracil (5-FU), 5-fluorouracil] | 4.8 |  |  |  |
| Cl.O=C1CC[C@@]2(O)[C@H]3Cc4ccc(O)c5c4[C@@]2(CCN3CC2CC2)[C@H]1O5 [PTI-901] |  | no significant adverse reactions | 76 | 1.25 ± 2.14 |
